Measurements reported in patent publication US8318928B2, “Fused imidazole carboxamides as TRPV3 modulators” (Glenmark Pharmaceuticals, S.A., priority 2008, dated 2012).
pIC50: −log10 of the molar value.

Molecular target: T1, Human TRPV3 expressing CHO cells (Homo sapiens, UniProt Q8NET8)
T1 construct: expressed in transfected cells; host or cells: CHO cells, kept under G-418 selection
T1 sequence (Q8NET8 1-790): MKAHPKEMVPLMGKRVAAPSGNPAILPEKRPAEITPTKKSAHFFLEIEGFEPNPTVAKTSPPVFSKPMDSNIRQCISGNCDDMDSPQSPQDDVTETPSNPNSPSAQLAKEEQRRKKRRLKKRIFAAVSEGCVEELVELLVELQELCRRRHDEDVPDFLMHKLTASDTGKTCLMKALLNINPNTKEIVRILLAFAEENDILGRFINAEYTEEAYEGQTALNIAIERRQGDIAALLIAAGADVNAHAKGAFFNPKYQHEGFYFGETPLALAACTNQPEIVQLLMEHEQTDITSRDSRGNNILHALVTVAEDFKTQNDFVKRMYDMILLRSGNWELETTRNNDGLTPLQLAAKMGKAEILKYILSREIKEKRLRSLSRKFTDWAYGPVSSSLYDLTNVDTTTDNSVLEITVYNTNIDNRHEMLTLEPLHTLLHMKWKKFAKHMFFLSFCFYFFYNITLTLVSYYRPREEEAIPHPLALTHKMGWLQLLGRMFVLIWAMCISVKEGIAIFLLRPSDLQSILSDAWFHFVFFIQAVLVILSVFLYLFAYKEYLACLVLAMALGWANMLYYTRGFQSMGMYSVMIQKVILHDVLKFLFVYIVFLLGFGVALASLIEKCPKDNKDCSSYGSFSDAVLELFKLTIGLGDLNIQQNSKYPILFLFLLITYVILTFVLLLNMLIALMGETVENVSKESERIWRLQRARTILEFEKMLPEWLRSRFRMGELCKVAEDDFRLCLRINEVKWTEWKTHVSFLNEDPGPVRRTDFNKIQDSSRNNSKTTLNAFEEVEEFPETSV
Assay: 45Calcium uptake assay: inhibition of 2-APB induced cellular uptake of radioactive calcium
Format: cell-based
Details: 2-APB 500 μM; for inhibition at 1 µM / Percentage inhibition at 1.0 μM: compound at 1.0 μM; for inhibition at 1 µM: read-out: Percentage inhibition at 1.0 μM; for inhibition at 10 µM / Percentage inhibition at 10.0 μM: compound at 10.0 μM; for inhibition at 10 µM: read-out: Percentage inhibition at 10.0 μM; for pIC50: class symbols
From the text: Certain illustrative compounds within the scope of the present invention are screened for TRPV3 activity according to a modified procedure described in (a) Tóth, A. et al. Life Sciences 2003, 73, 487-498. (b) McNamara C, R. et al. Proc. Natl. Acad. Sci. U.S.A., 2007, 104, 13525-13530. The screening of the compounds may be carried out by other methods and procedures known to persons skilled in the art.
Screening for TRPV3 Antagonist Using the ^45Calcium Uptake Assay
The inhibition of TRPV3 receptor activation was followed as inhibition of 2-aminoethxydiphenylborate (2-APB) induced cellular uptake of radioactive calcium. Test compounds were dissolved in dimethyl sulfoxide (DMSO) to prepare 20 mM stock solution and then diluted using plain medium with DMEM/F-12 containing 1.8 mM CaCl2 to get desired concentration. Final concentration of DMSO in the reaction was 0.5% (v/v). Human TRPV3 expressing CHO cells were grown in DMEM/F-12 medium with 10% FBS, 1% penicillin-streptomycin solution, 400 μg/mL of G-418. Cells were seeded 24 h prior to the assay in 96 well plates so as to get ˜50,000 cells per well on the day of experiment. Cells were treated with test compounds for 10 minutes followed by addition of 2-APB at a final concentration of 500 μM and 5 μCi/mL ^45Ca^+2 for 4 minutes. Cells were washed and lysed using buffer containing 1% Triton X-100, 0.1% deoxycholate and 0.1% SDS. Radioactivity in the lysate was measured in Packardt Top count after addition of liquid scintillant. Concentration response curves were plotted as a % of maximal response obtained in the absence of test antagonist. IC50 value was calculated from concentration response curve by nonlinear regression analysis using GraphPad PRISM software.
Percentage inhibition at concentrations of 1.0 μM and 10.0 μM are given in the table along with IC50 (nM) details for selected examples.

Compound	inhibition at 1 µM [%]	inhibition at 10 µM [%]	pIC50	Percentage inhibition at 1.0 μM [%]	Percentage inhibition at 10.0 μM [%]
CC(C)CCOc1c(/C=C/c2nc3ccccn3c2C(=O)Nc2nc(C(F)(F)F)cs2)cccc1OC(F)F [Example 41, 2-{(E)-2-[3-(Difluoromethoxy)-2-(3-methylbutoxy)phenyl]vinyl}-N-[4-(trifluoromethyl)-1,3-thiazol-2-yl]imidazo[1,2-c]pyridine-3-carboxamide]				52.99	84.65
O=C(Nc1nc(C(F)(F)F)cs1)c1c(/C=C/c2cccc(O)c2O)nc2sccn12 [Example 19, 6-[(E)-2-(2,3-Dihydroxyphenyl)vinyl]-N-[4-(trifluoromethyl)-1,3-thiazol-2-yl]imidazo[2,1-b][1,3]thiazole-5-carboxamide]	13.9	4.88			
COc1cccc(/C=C/c2nc3sccn3c2C(=O)N2CCCc3ccccc32)c1OCC1CC1 [Example 3, 1-({6-[(E)-2-(2-Cyclopropylmethoxy-3-methoxyphenyl)vinyl]imidazo[2,1-b][1,3]thiazol-5-yl}carbonyl)-1,2,3,4-tetrahydroquinoline]	34.6	90.6			
COc1cccc(/C=C/c2nc3sccn3c2C(=O)N2CCN(c3ccc(C#N)cn3)CC2)c1OCC1CC1 [Example 5]	5.32	38.2			
COc1cccc(/C=C/c2nc3sccn3c2C(=O)Nc2ccc(OC(F)(F)F)cc2)c1OCC1CC1 [Example 1, 6-[(E)-2-(2-Cyclopropylmethoxy-3-methoxyphenyl)vinyl]-N-[4-(trifluoromethoxy)phenyl]imidazo[2,1-b][1,3]thiazole-5-carboxamide]	9.3	38.6			
COc1cccc(/C=C/c2nc3sccn3c2C(=O)Nc2nc(C(F)(F)F)cs2)c1OC1CCCC1 [Example 16, 6-[(E)-2-(2-Cyclopentyloxy-3-methoxyphenyl)vinyl]-N-[4-(trifluoromethyl)-1,3-thiazol-2-yl]imidazo[2,1-b][1,3]thiazole-5-carboxamide]	81.7	93.1	6.00 to 6.60		
COc1cccc(/C=C/c2nc3sccn3c2C(=O)Nc2nc(C(F)(F)F)co2)c1OCC(C)(C)C [Example 13, 6-{[(E)-2-(2,2-Dimethylpropoxy)-3-methoxyphenyl]vinyl}-N-[4-(trifluoromethyl)-1,3-oxazol-2-yl]imidazo[2,1-b][1,3]thiazole-5-carboxamide]				10.75	31.51
CC(C)(C)COc1c(/C=C/c2nc3ccccn3c2C(=O)Nc2nc(C3CCC3)cs2)cccc1OC(F)F [Example 40, N-(4-Cyclobutyl-1,3-thiazol-2-yl)-2-{(E)-2-[3-(difluoromethoxy)-2-(2,2-dimethyl-propoxy)phenyl]vinyl}imidazo[1,2-c]pyridine-3-carboxamide]				56.41	72.35

Second part, led by results:

inhibition at 1 µM [%]	inhibition at 10 µM [%]	pIC50	Compound	Percentage inhibition at 1.0 μM [%]	Percentage inhibition at 10.0 μM [%]
25.7	33.9		CC(C)(C)COc1c(/C=C/c2nc3sccn3c2C(=O)Nc2ncc(C(F)(F)F)cc2Cl)cccc1OC(F)F [Example 27, N-[3-Chloro-5-(trifluoromethyl)pyridin-2-yl]-6-{(E)-2-[3-(difluoromethoxy)-2-(2,2-dimethylpropoxy)phenyl]vinyl}imidazo[2,1-b][1,3]thiazole-5-carboxamide]		
47.9	86.5		CC(C)(C)COc1c(/C=C/c2nc3sccn3c2C(=O)Nc2nc(C3CCC3)cs2)cccc1OC(F)F [Example 22, 6-{(E)-2-[2-(2,2-Dimethylpropoxy)-3-(difluoromethoxy)phenyl]vinyl}-N-(4-cyclobutyl-1,3-thiazol-2-yl)imidazo[2,1-b][1,3]thiazole-5-carboxamide]		
88.1	91.1	> 7.00	COc1cccc(/C=C/c2nc3sccn3c2C(=O)Nc2nc(C(C)(C)C)cs2)c1OCC(C)(C)C [Example 8, 6-{(E)-2-[2-(2,2-Dimethylpropoxy)-3-methoxyphenyl]vinyl}-N-[4-(tert-butyl)-1,3-thiazol-2-yl]imidazo[2,1-b][1,3]thiazole-5-carboxamide]		
53.3	81.7		CC(C)c1csc(NC(=O)c2c(/C=C/c3cccc(OC(F)F)c3OCC(C)(C)C)nc3sccn23)n1 [Example 20, 6-{(E)-2-[2-(2,2-Dimethylpropoxy)-3-(difluoromethoxy)phenyl]vinyl}-N-(4-isopropyl-1,3-thiazol-2-yl)imidazo[2,1-b][1,3]thiazole-5-carboxamide]		
93.2	90	> 7.00	CC(C)(C)COc1c(/C=C/c2nc3sccn3c2C(=O)Nc2nc(C3CC3)cs2)cccc1OC(F)F [Example 23, 6-{(E)-2-[2-(2,2-Dimethylpropoxy)-3-(difluoromethoxy)phenyl]vinyl}-N-(4-cyclo-propyl-1,3-thiazol-2-yl)imidazo[2,1-b][1,3]thiazole-5-carboxamide]		
85.3	94.6	6.00 to 6.60	O=C(Nc1nc(C(F)(F)F)cs1)c1c(/C=C/c2cccc(OC(F)F)c2OC2CCCC2)nc2sccn12 [Example 17, 6-{(E)-2-[2-Cyclopentyloxy-3-(difluoromethoxy)phenyl]vinyl}-N-[4-(trifluoromethyl)-1,3-thiazol-2-yl]imidazo[2,1-b][1,3]thiazole-5-carboxamide]		
84.3	96.5	> 7.00	O=C(Nc1nc(C2CC2)cs1)c1c(/C=C/c2cccc(OC(F)F)c2OCC2CCC2)nc2sccn12 [Example 35, 6-{(E)-2-[2-(Cyclobutylmethoxy)-3-(difluoromethoxy)phenyl]vinyl}-N-(4-cyclopropyl-1,3-thiazol-2-yl)imidazo[2,1-b][1,3]thiazole-5-carboxamide]		
80.8	89.8	6.60 to 7.00	CC(C)(C)COc1c(/C=C/c2nc3sccn3c2C(=O)Nc2nc(C(C)(C)C)cs2)cccc1OC(F)F [Example 21, 6-[(E)-2-(3-(Difluoromethoxy)-2-(2,2-dimethylpropoxy)-phenyl)vinyl]-N-(4-tert-butyl-1,3-thiazol-2-yl)imidazo[2,1-b][1,3]thiazole-5-carboxamide]		
22.5	37.3		CC(C)(C)COc1c(/C=C/c2nc3sccn3c2C(=O)Nc2cccc(C(F)(F)F)c2)cccc1OC(F)F [Example 24, 6-{(E)-2-[3-(Difluoromethoxy)-2-(2,2-dimethylpropoxy)phenyl]vinyl}-N-(3-trifluoromethylphenyl)imidazo[2,1-b][1,3]thiazole-5-carboxamide]		
13.3	82.8		COc1cccc(/C=C/c2nc3sccn3c2C(=O)Nc2nnc(C(F)(F)F)s2)c1OCC(C)(C)C [Example 12, 6-{(E)-2-[2-(2,2-Dimethylpropoxy)-3-methoxyphenyl]vinyl}-N-[5-(trifluoromethyl)-1,3,4-thiadiazol-2-yl]imidazo[2,1-b][1,3]thiazole-5-carboxamide]		
24	15.3		CC(C)(C)COc1c(/C=C/c2nc3sccn3c2C(=O)Nc2nc3ccc(F)cc3s2)cccc1OC(F)F [Example 29, 6-{(E)-2-[3-(Difluoromethoxy)-2-(2,2-dimethylpropoxy)phenyl]vinyl}-N-(6-fluoro-1,3-benzothiazol-2-yl)imidazo[2,1-b][1,3]thiazole-5-carboxamide]		
